Measurements taken from patent US20250345333A1, “THERAPIES WITH PPAR AGONISTS AND FGFR4 INHIBITORS” (TYRA BIOSCIENCES, INC., priority 2022, published 2025).
Where two headings read alike, the source gives them in different places. Values belong to the compound of their own block, whether it stands above or below them.

Experiments:
[1] = system: CYP7A1 expression in HuH-7 cells; assay: CYP7A1 mRNA expression (qPCR, relative to Actin) in HuH-7 cells
Procedure: (§1) Fenofibrate or fenofibric acid was applied at a concentration of 2, 5, and 10 μM added simultaneously in combination with 30 nM of BLU-554 in growth media (DMEM supplemented with 10% Fetal Bovine Serum), for 18 hours. mRNA was then isolated and CYP7A1 expression was measured using TaqMan™ qPCR Assays (CYP7A1 assay ID: Hs00167982_m1, ACTNB assay ID: Hs99999903_m1).
(§2) Hep3B and HUH-7 cells were treated with 10 μg/ml mouse Isotype monoclonal IgG control (R&D-MAB002), or 2 μg/ml, 5 μg/ml, and 10 μg/ml of hFGF19 Antibody (R&D-AF969) for 24 hours. mRNA was then isolated and CYP7A1 expression was measured using qPCR. The depicted data represent the fold change in CYP7A1 mRNA levels compared to vehicle (DMSO) treated cells, and Actin was used as internal control.
(§3) Hep3B and HUH-7 cells were treated with 10 μg/ml of hFGF19 Antibody (R&D-AF969) in combination with 2 μM, 5 μM, or 10 μM of fenofibrate, for 24 hours. Two control groups included; untreated cells, and cell treated with 10 μg/ml mouse Isotype monoclonal IgG (R&D-MAB002), for 24 hours.

[2] = system: CYP7A1 expression in Hep3B cells; assay: CYP7A1 mRNA expression (qPCR, relative to Actin) in Hep3B cells
Procedure: as §1, §2, §3

[3] = system: Cyp7a1 mRNA expression in mouse livers; assay: Liver Cyp7a1 mRNA expression in mice
Procedure: For the in vivo experiments, male C57BL/6 mice were dosed orally with vehicle, fenofibrate, an FGFR4 inhibitor, or with a combination of fenofibrate and an FGFR4 inhibitor at the doses indicated. Before the final day of the study, animals were fasted overnight and serum was collected 4 hours after the final dose. Serum C4 (7-alpha-hydroxy- 4-cholestene-3-one) analyses were carried out on an Agilent 6495 triple quadrupole mass spectrometer with jet stream source coupled to an Agilent 1290 UPLC stack. Data was processed using Waters TargetLynx data processing software. Calibration curves were generated using reference standard (7A4C; Sigma-Aldrich). Calibration range was from 0.5ng/ml-200 ng/ml with an internal deuterated standard (7A4C-D7; Avanti Polar Lipids) concentration of 100 ng/ml. The vehicle for fenofibrate, FGF401 and H3B-6527 was 0.5% methylcellulose/0.5% tween 80 (MC/Tween), and the vehicle for BLU554 was 80% PEG400/4% hydroxypropyl-β-cyclodextrin (HPBCD). When combination treatments were tested, the vehicle treatment groups received both vehicles, formulated separately. In the combination treatment groups, the compounds were formulated and dosed separately.

[4] = system: serum C4 (7-alpha-hydroxy-4-cholestene-3-one); assay: Serum C4 in athymic nude mice carrying HuH-7 tumors; type: in vivo; details: 14 days; for serum C4 levels: HuH-7 tumor-bearing mice, inhibitor alone: BLU554 100 mg/kg BID, FGF401 30 or 100 mg/kg BID
[5] = system: serum C4 (7-alpha-hydroxy-4-cholestene-3-one); assay: Serum C4 in C57BL/6 mice dosed orally
Procedure: For the in vivo experiments, male C57BL/6 mice were dosed orally with vehicle, fenofibrate, an FGFR4 inhibitor, or with a combination of fenofibrate and an FGFR4 inhibitor at the doses indicated. Before the final day of the study, animals were fasted overnight and serum was collected 4 hours after the final dose. Serum C4 (7-alpha-hydroxy- 4-cholestene-3-one) analyses were carried out on an Agilent 6495 triple quadrupole mass spectrometer with jet stream source coupled to an Agilent 1290 UPLC stack. Data was processed using Waters TargetLynx data processing software. Calibration curves were generated using reference standard (7A4C; Sigma-Aldrich). Calibration range was from 0.5ng/ml-200 ng/ml with an internal deuterated standard (7A4C-D7; Avanti Polar Lipids) concentration of 100 ng/ml. […] When combination treatments were tested, the vehicle treatment groups received both vehicles, formulated separately. In the combination treatment groups, the compounds were formulated and dosed separately. The mean C4 value for each group of 4 mice is shown, and error bars represent standard error of the mean.

bile acid (BA) levels = assay: Bile acid levels in liver, plasma and gallbladder of athymic nude mice; details: oral, BID, 3 weeks; H3B-6527 300 mg/kg, FGF401 30 mg/kg; 4 hours after final dose; vs vehicle
Procedure: FIGS. 14A-14C are bar graphs depicting changes in bile acid (BA) levels (fold change over control) in liver (FIG. 14A), plasma (FIG. 14B), and gallbladder (FIG. 14C) of athymic nude (Nu/Nu) mice treated orally with vehicle ((1) 0.5% MC/tween), H3B-6527 ((2) 300 mg/kg, BID), or FGF401/Roblitinib ((3) 30 mg/kg, BID), for 3 weeks. Four hours after the final dose, mice were euthanized and plasma, liver and gallbladder samples were collected, and bile acid levels measured.
FIGS. 14A-14C are bar graphs depicting changes of bile acid (BA) levels (fold change over control) in liver (FIG. 14A), plasma (FIG. 14B), and gallbladder (FIG. 14C) of athymic nude (Nu/Nu) mice treated orally with vehicle (0.5% MC/tween), H3B-6527 (300 mg/kg, BID), or FGF401/Roblitinib (30 mg/kg, BID), for 3 weeks. Four hours after the final dose, mice were euthanized and plasma, liver and gallbladder samples were collected and bile acid levels measured. Bile acids were measured at the metabolomics core facility of University of Kansas Medical Center, following an established protocol.

[6] = system: serum C4 (7-alpha-hydroxy-4-cholestene-3-one); assay: Serum C4 in athymic nude (Nu/Nu) mice; type: in vivo; details: FGF401 at 30 mg/kg, H3B-6527 at 300 mg/kg

SMILES: C=CC(=O)N[C@H]1CCOC[C@H]1Nc1ncc2cc(-c3c(Cl)c(OC)cc(OC)c3Cl)ccc2n1 [BLU-554, fisogatinib]
- CYP7A1 expression (Relative mRNA expression/Actin) [1]: increased CYP7A1 expression
- CYP7A1 expression (Relative mRNA expression/Actin) [2]: increased CYP7A1 expression
- liver Cyp7a1 mRNA expression (% Actb) ([3]; BLU-554 (100 mg/kg) alone): Cyp7a1 upregulation
- serum C4 levels [4]: significantly raised levels
- levels of serum C4 ([5]; C57BL/6 mice, BLU554 at 100 mg/kg): increases in levels of serum C4

SMILES: COCCNc1cc(NC(=O)N2CCCc3cc(CN4CCN(C)CC4=O)c(C=O)nc32)ncc1C#N [FGF-401, roblitinib]
- CYP7A1 expression (Relative mRNA expression/Actin) [1]: increased CYP7A1 expression
- CYP7A1 expression (Relative mRNA expression/Actin) [2]: increased CYP7A1 expression
- bile acids level in gall bladder (fold change over control) (bile acid (BA) levels): increased bile acids level
- bile acids level in liver (fold change over control) (bile acid (BA) levels): increased bile acids level
- bile acids level in plasma (fold change over control) (bile acid (BA) levels): increased bile acids level
- levels of serum C4 [6]: increases in levels of serum C4
- serum C4 levels [4]: significantly raised levels

SMILES: CC(C)OC(=O)C(C)(C)Oc1ccc(C(=O)c2ccc(Cl)cc2)cc1 [fenofibrate]
- liver Cyp7a1 mRNA expression (% Actb) ([3]; fenofibrate co-administered with BLU-554 (100 mg/kg)): reversed BLU-554-induced Cyp7a1 upregulation in mouse livers, in a dose dependent manner
- rise in serum C4 ([4]; fenofibrate 40 mg/kg QD plus BLU554 100 mg/kg BID): significantly attenuated the rise in C4
- rise in serum C4 ([4]; fenofibrate 40 mg/kg QD plus FGF401 30 mg/kg BID): attenuated the rise in C4
- serum C4 levels ([5]; different doses of fenofibrate in combination with BLU-554 (100 mg/Kg), 6 days): reduced the increase in C4 caused by BLU554

SMILES: C=CC(=O)N1CC[C@H](n2nc(C#Cc3cc(OC)cc(OC)c3)c3c(N)ncnc32)C1 [futibatinib]
- CYP7A1 expression (Relative mRNA expression/Actin) ([1]; HuH-7 cells, increasing concentrations of inhibitor alone, 18 hours): increased CYP7A1 expression
- CYP7A1 expression (Relative mRNA expression/Actin) ([2]; Hep3B cells, increasing concentrations of inhibitor alone, 18 hours): increased CYP7A1 expression

Second part, the compound after the results:

- levels of serum C4 [6]: increases in levels of serum C4
SMILES: C=CC(=O)Nc1cc(N2CCN(CC)CC2)ccc1Nc1cc(N(C)C(=O)Nc2c(Cl)c(OC)cc(OC)c2Cl)ncn1 [H3B-6527]

- CYP7A1 expression (Relative mRNA expression/Actin) [1]: increased CYP7A1 expression
- CYP7A1 expression (Relative mRNA expression/Actin) [2]: increased CYP7A1 expression
SMILES: COc1cc(OC)cc(N(CCNC(C)C)c2ccc3ncc(-c4cnn(C)c4)nc3c2)c1 [erdafitinib]
